From patent publication US5656603A (Loyola University of Chicago, priority 1995, dated 1997)

Experiments:
Assay type in all cases: biochemical
microsomal dipeptidase = biological target: T1, microsomal dipeptidase (Rattus norvegicus, UniProt P31430); assay: Specificity of apstatin: microsomal (membrane) dipeptidase; conditions: purified, rat lung; Gly-D-Phe, pH 8.0, HPLC-1
T1 construct: Membrane dipeptidase was purified from rat lung microsomes; from tissue; host or cells: rat lung microsomes
Source text: (§1) Enzymes--Membrane-bound aminopeptidase P was purified to homogeneity from bovine lung (14) and from rat lung. Partially purified membrane-bound aminopeptidase P from human lung was obtained by treatment of lung microsomes with phosphatidylinositol-specific phospholipase C (B. thuringiensis) (ICN, Costa Mesa, Calif.) followed by centrifugation as described previously (14). Membrane dipeptidase was purified from rat lung microsomes (manuscript in preparation). Recombinant E. coli aminopeptidase P (22) and purified lamb kidney prolyl oligopeptidase (23) were generally supplied by Dr. Tadashi Yoshimoto (Nagasaki University). Purified porcine kidney prolidase and purified porcine kidney aminopeptidase M was obtained from Sigma (St. Louis, Mo.).
(§2) Specificity of Apstatin--Apstatin was assayed for its ability to inhibit several other peptidases. […] Unless otherwise indicated, the source of each enzyme activity was a detergent extract of bovine lung prepared as described in (12-13). Activities were determined by a modification of the fluorescent assay described above (indicated by "FLUO") or by HPLC separation and quantitation of reaction products using the method described in (12) (method "HPLC-1") or the method described below (method "HPLC-2"). […]

[1] = biological target: T2, aminopeptidase M (EC 3.4.11.2) (Sus scrofa, UniProt P15145); assay: Specificity of apstatin: aminopeptidase M; conditions: purified, porcine kidney; Ala-β-NA, pH 6.8, FLUO
T2 construct: Purified porcine kidney prolidase and purified porcine kidney aminopeptidase M was obtained from Sigma; purchased Sigma (St. Louis, Mo.); host or cells: porcine kidney
T2 sequence (P15145 1-963): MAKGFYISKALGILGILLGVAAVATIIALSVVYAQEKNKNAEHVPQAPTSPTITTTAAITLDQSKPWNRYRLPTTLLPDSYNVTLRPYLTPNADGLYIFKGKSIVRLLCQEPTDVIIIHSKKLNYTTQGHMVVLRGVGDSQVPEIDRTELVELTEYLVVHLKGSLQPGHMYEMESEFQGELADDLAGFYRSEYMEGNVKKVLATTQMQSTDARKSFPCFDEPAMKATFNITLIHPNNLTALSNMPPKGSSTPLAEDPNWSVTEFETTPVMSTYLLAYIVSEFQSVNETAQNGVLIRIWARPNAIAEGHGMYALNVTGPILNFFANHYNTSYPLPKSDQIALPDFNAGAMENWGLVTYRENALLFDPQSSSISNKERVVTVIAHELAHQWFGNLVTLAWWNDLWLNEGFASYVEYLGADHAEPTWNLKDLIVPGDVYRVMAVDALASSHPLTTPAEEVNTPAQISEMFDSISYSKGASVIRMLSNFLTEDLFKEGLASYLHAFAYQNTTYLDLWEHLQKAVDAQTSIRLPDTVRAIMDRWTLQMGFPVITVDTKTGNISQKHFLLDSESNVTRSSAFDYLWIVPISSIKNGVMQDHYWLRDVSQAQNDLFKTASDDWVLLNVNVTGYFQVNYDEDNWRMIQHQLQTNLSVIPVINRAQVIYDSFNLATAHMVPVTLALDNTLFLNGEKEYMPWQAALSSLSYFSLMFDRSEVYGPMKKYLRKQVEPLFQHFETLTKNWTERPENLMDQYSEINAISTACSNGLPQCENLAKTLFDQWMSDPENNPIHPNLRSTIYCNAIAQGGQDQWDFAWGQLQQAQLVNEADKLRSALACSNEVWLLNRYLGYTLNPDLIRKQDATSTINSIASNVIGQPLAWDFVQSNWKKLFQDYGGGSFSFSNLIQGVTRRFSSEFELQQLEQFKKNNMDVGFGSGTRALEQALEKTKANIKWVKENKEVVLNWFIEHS
Protocol: as §2

prolidase = biological target: T3, prolidase (Sus scrofa, UniProt A0A5G2QQV1); assay: Specificity of apstatin: prolidase; conditions: purified, porcine kidney; Arg-Pro, pH 8.0, HPLC-2
T3 construct: Purified porcine kidney prolidase and purified porcine kidney aminopeptidase M was obtained from Sigma; purchased Sigma (St. Louis, Mo.); host or cells: porcine kidney
T3 sequence (A0A5G2QQV1 1-463): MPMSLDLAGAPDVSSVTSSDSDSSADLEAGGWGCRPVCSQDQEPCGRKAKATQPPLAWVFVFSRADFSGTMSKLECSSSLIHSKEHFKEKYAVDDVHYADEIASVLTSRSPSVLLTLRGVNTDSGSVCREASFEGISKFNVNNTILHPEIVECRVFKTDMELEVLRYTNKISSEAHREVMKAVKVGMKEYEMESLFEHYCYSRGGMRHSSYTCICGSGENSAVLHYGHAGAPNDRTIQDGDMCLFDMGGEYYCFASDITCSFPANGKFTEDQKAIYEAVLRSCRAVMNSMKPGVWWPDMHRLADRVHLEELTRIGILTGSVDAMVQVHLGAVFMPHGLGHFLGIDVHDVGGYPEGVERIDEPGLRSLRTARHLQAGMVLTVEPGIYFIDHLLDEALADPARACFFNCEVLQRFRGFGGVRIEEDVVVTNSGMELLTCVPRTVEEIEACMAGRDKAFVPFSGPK
Source text: as §1, §2

T1 sequence (P31430 17-410): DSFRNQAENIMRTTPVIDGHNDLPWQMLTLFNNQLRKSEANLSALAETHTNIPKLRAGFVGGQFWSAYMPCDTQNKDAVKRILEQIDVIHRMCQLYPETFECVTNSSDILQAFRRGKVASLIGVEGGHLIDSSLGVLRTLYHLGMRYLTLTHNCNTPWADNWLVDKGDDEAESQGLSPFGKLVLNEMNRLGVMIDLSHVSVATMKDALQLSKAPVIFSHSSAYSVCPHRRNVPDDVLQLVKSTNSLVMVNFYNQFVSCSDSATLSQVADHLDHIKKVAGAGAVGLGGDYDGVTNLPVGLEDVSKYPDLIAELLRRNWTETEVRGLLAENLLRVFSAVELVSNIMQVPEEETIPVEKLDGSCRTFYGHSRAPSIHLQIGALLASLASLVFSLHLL

C[C@H](NC(=O)[C@@H]1CCCN1C(=O)[C@@H]1CCCN1C(=O)[C@@H](O)[C@H](N)Cc1ccccc1)C(N)=O [apstatin, N-[(2S, 3R)-3-amino-2-hydroxy-4-phenylbutanoyl]-L-prolyl-L-prolyl-Lalaninamide] was tested, and the IC50 (microsomal dipeptidase) was over 800 µM, the IC50 [1] was 600 µM and the IC50 (prolidase) was 4.9 µM.
